From ChEMBL document CHEMBL1201862, “PubChem BioAssay data set” (2004)
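Cultured in 96-well plates, cells were exposed to test compound for 48 hours across five concentrations. Abbreviation: GI50, concentration required for 50% inhibition of growth.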 Active and inactive are the calls of the source. Rule as the data show it: active = GI50 up to about 1.1 µM and inactive = higher.

Assays:
Assay in all cases: DTP human tumour cell line panel, 48 h
[1] = system: A549
[2] = system: BT-549
[3] = system: HCC 2998
[4] = system: HCT-116
[5] = system: HOP-62
[6] = system: KM12
[7] = system: M14
[8] = system: MDA-MB-231
[9] = system: MOLT-4
[10] = system: NCI-H522
[11] = system: NCI/ADR-RES
[12] = system: OVCAR-4
[13] = system: RXF 393
[14] = system: SF-268
[15] = system: SK-MEL-2
[16] = system: SK-MEL-5
[17] = system: SNB-19
[18] = system: SR
[19] = system: SW-620
[20] = system: UACC-257

Measured: GI50

O=C(NCCCCCCNC(=O)n1cc(F)c(=O)[nH]c1=O)NCCCOCCOCCOCCOCCOCCOCCOCCOCCOCCOCCOCCOCCOCCOCCOCCOCCOCCOCCOCCOCCOCCCNC(=O)C(O)C(O)C(O)C(O)CO (stereo not drawn)
inactive: [1] 6.52 µM | [2] 37.7 µM | [3] 5.66 µM | [4] 9.57 µM | [5] 33.5 µM | [6] 31.7 µM | [7] 75.3 µM | [8] > 100 µM | [9] 33.9 µM | [10] > 90.2 µM | [11] 69.8 µM | [12] > 100 µM | [13] 43.2 µM | [14] 55.5 µM | [15] > 100 µM | [16] 51.9 µM | [17] 84.7 µM | [18] 65.9 µM | [19] 53.8 µM | [20] > 90.2 µM

c1c[nH]c(CN2CCOCC2)n1
inactive: [1] > 100 µM | [2] > 100 µM | [4] > 100 µM | [5] > 100 µM | [6] > 100 µM | [7] > 100 µM | [8] > 100 µM | [9] > 100 µM | [10] > 100 µM | [11] > 100 µM | [12] > 100 µM | [13] > 100 µM | [14] > 100 µM | [15] > 100 µM | [16] > 100 µM | [17] > 100 µM | [18] > 100 µM | [19] > 100 µM | [20] > 100 µM

Cn1c2ccccc2c(=S)c2ccccc21
inactive: [1] > 100 µM | [2] > 100 µM | [3] > 100 µM | [4] > 100 µM | [5] > 100 µM | [6] > 100 µM | [7] > 100 µM | [8] > 100 µM | [9] > 100 µM | [10] > 100 µM | [11] > 100 µM | [13] > 100 µM | [14] > 100 µM | [15] > 100 µM | [16] > 100 µM | [17] > 100 µM | [18] > 100 µM | [19] > 100 µM | [20] > 100 µM

CC(=O)O[C@H]1CCC2[C@@H]3CCC4Nc5oncc5C[C@]4(C)C3CC[C@@]21C (stereo partly drawn)
inactive: [1] > 10 µM | [2] > 10 µM | [3] > 10 µM | [4] 6.49 µM | [5] > 10 µM | [6] > 10 µM | [7] > 10 µM | [8] > 10 µM | [9] 3.92 µM | [11] > 10 µM | [12] > 10 µM | [13] > 10 µM | [14] > 10 µM | [15] > 10 µM | [16] > 10 µM | [17] > 10 µM | [18] > 10 µM | [19] > 10 µM | [20] > 10 µM

Cc1nnc(CC#N)n1NC(=O)CC#N
inactive: [1] > 100 µM | [2] > 100 µM | [3] > 100 µM | [4] > 100 µM | [5] > 100 µM | [6] > 100 µM | [7] > 100 µM | [8] > 100 µM | [9] > 100 µM | [10] > 100 µM | [11] > 100 µM | [13] > 100 µM | [14] > 100 µM | [15] > 100 µM | [16] > 100 µM | [17] > 100 µM | [18] > 100 µM | [19] > 100 µM | [20] > 100 µM

O=C1CS(=O)(=O)C(c2cccc(Oc3ccccc3)c2)N1C1CC1 (stereo not drawn)
inactive: [1] 35.6 µM | [2] 41.7 µM | [3] 44 µM | [4] 25.5 µM | [6] 31.4 µM | [7] 41.1 µM | [8] 75.2 µM | [9] 30.4 µM | [10] 38.7 µM | [11] 28.1 µM | [12] 29.2 µM | [13] 22 µM | [14] 64.7 µM | [15] 45.1 µM | [16] 18.9 µM | [17] 50.1 µM | [18] 31.6 µM | [19] 60.5 µM | [20] 33.2 µM

CCCCOCOc1ccccc1P1(=O)COc2ccccc2OC1
inactive: [1] 88.5 µM | [2] 41.5 µM | [3] > 100 µM | [4] 62.5 µM | [5] > 100 µM | [6] > 100 µM | [7] 83.9 µM | [8] 43.4 µM | [11] > 100 µM | [12] 42.2 µM | [13] 37.8 µM | [14] > 100 µM | [15] > 100 µM | [16] > 100 µM | [17] > 100 µM | [18] 37.1 µM | [19] > 100 µM | [20] 67.3 µM
